Here are results for ten compounds from patent US20140163099A1, “ANTIMICROBIAL COMPOSITION” (TAKASAGO INTERNATIONAL CORPORATION, priority 2011, published 2014).

≈ marks a conversion by molar mass, not a printed value.

What all share (type): cell-based
Test [1] deals with Actinomyces naeslundii (JCM8350). Briefly: Growth inhibition activity (MIC, agar) against anaerobic bacteria. Particulars: Actinomyces naeslundii, JCM8350, 72 h, strain JCM8350; Trypticase Soy Broth agar, 37 degrees C. for 3 days; read-out: MIC (Minimum Inhibitory Concentration). The method, then:
(§1) In the present invention, the growth inhibition activity, which is an indicator of the antimicrobial activity, is evaluated by determining the Minimum Inhibitory Concentration (MIC) with an agar or liquid medium.
(§2) In the test for growth inhibition activity, the following strains were used: • Acne bacteria: Propionibacterium acnes (JCM6473) and (ATCC6919) • Abscess bacteria: Bacteroides fragilis (GAI5560) • Cavity-causing bacteria: Streptococcus mutans (JCM5175), Actinomyces naeslundii (JCM8350) and Actinomyces viscosus (JCM8352) • Periodontal pathogen: Fusobacterium nucleatum (JCM6328), Porphyromonas gingivalis (JCM8525), Prevotella nigrescens (JCM6322)
(§3) The test strains were cultured in a GAM medium (Nissui Pharmaceutical Co., LTD), a Schaedler Broth (BBL) or a Trypticase Soy Broth (BBL) liquid medium, and then the grown bacteria were diluted in saline to prepare turbidity 0.5 McFarland of the bacteria fluids for inoculation. The bacteria were cultured at 37 degrees C. for 3 days under an anaerobic condition by using AnaeroPack® from MGC.
(§4) Furthermore, in order to examine the growth inhibition activities against the bacteria by the above cooling agent, the concentration of the cooling agents: (3S)-CA20, (3R)-CA20, CA1, CA5, CA15, CA55 or CA MGH was diluted with ethanol to the required level of concentrations for the determining the Minimum Inhibitory Concentration to produce the sample liquids.
(§5) Next, 100 μL of each sample liquid was added to 10 mL of a Trypticase Soy Broth agar medium solution in a soluble state, and each agar medium solution was poured into a petri dish and solidified, to prepare the test plates. Subsequently, 5 μL of above the bacteria fluids for inoculation were stamped on the test plates, and then the test plates were cultured at 37 degrees C. for 3 days.
(§6) The minimum concentration of the cooling agent in which the growth of bacteria could not be confirmed was considered as the MIC (Minimum Inhibitory Concentration).
as §6

Test [2] deals with Actinomyces viscosus (JCM8352). The test is described as above. Conditions: Actinomyces viscosus, 72 h; strain JCM8352; Trypticase Soy Broth agar, 37 degrees C. for 3 days; read-out: MIC (Minimum Inhibitory Concentration). The method, then:
as §1, §2, §3, §4, §5, §6, §6

Test [3] concerns Bacteroides fragilis (GAI5560). The test is described as above. Particulars: Bacteroides fragilis, 72 h; strain GAI5560; Trypticase Soy Broth agar, 37 degrees C. for 3 days; read-out: MIC (Minimum Inhibitory Concentration). The method, then: as §1, §2, §3, §4, §5, §6, §6
For test [4], the system named is Porphyromonas gingivalis (JCM8525). Described as above. Particulars: Porphyromonas gingivalis, JCM8525, 72 h, strain JCM8525; Trypticase Soy Broth agar, 37 degrees C. for 3 days; read-out: MIC (Minimum Inhibitory Concentration). The method, then:
as §1, §2, §3, §4, §5, §6, §6

Test [5] relates to Prevotella nigrescens (JCM6322). Described as above. Particulars: Prevotella nigrescens, JCM6322, 72 h, strain JCM6322; Trypticase Soy Broth agar, 37 degrees C. for 3 days; read-out: MIC (Minimum Inhibitory Concentration). As to the method:
as §1, §2, §3, §4, §5, §6, §6

Test [6] concerns Propionibacterium acnes (ATCC6919). The test is described as above. Particulars: Cutibacterium acnes, ATCC6919, 72 h, strain ATCC6919; Trypticase Soy Broth agar, 37 degrees C. for 3 days; read-out: MIC (Minimum Inhibitory Concentration). The method, then: as §1, §2, §3, §4, §5, §6, §6
Test [7] deals with Propionibacterium acnes (JCM6473). The test is described as above. Conditions: Cutibacterium acnes, 72 h; strain JCM6473; Trypticase Soy Broth agar, 37 degrees C. for 3 days; read-out: MIC (Minimum Inhibitory Concentration). As to the method: as §1, §2, §3, §4, §5, §6, §6
Test [8] relates to Streptococcus mutans (JCM5175). The description is as above. Particulars: Streptococcus mutans, 72 h; strain JCM5175; Trypticase Soy Broth agar, 37 degrees C. for 3 days; read-out: MIC (Minimum Inhibitory Concentration). The method, then:
as §1, §2, §3, §4, §5, §6, §6

Test [9] has as its system Fusobacterium nucleatum (JCM6328). The test is described as above. Particulars: 72 h, strain JCM6328, Trypticase Soy Broth agar, 37 degrees C. for 3 days, read-out: MIC (Minimum Inhibitory Concentration). As to the method:
as §1, §2, §3, §4, §5, §6, §6

The next test has as its system target microbe species. Briefly: Growth inhibition activity compared with 3-menthoxypropane-1,2-diol. Conditions: depending on kinds of target microbe species.
Source text: Although the all present cooling agents can have growth inhibition activities against both aerobic and anaerobic microorganisms (e.g. bacteria and fungi, etc.), menthyl 3-hydroxybutanoate and 3-menthoxypropan-1-ol have specifically high growth inhibition activities and potent growth inhibition activities against both aerobic and anaerobic microorganisms. Examples of microorganisms include Corynebacterium, Actinomyces and so on. Menthyl 3-hydroxybutanoate and 3-menthoxypropan-1-ol have 2 to 8 times as much growth inhibition activity as 3-menthoxypropane-1,2-diol (which is known as an antimicrobial agent), and can have more than or equal to 8 times as much growth inhibition activity as 3-menthoxypropane-1,2-diol, depending on kinds of target microbe species.
Furthermore, when compared 2-methyl-3-(menthoxy)propane-1,2-diol with 3-menthoxypropane-1,2-diol (which is known as an antimicrobial agent), the former has about 2 times as much growth inhibition activity as the latter, depending on kinds of target microbe species. […]
as §1

On to `CC(O)CC(=O)OC1CC(C)CCC1C(C)C` [(3S)-CA20, menthyl 3-hydroxybutanoate], for which the MIC in [1] is 100 µg/mL (≈ 413 µM); in test [2] it was 100 µg/mL (≈ 413 µM); in [3], 100 µg/mL (≈ 413 µM); in [4] it was less than 50 µg/mL; in test [5], 100 µg/mL (≈ 413 µM); in test [6], 200 µg/mL (≈ 825 µM). Also, the MIC in test [7] and in test [8] was 200 µg/mL (≈ 825 µM) throughout.
With `CC1CCC(C(C)C)C(OCC(C)(O)CO)C1` (stereo not shown) [CA1, 2-methyl-3-(menthoxy)propane-1,2-diol], the MIC is 800 µg/mL (≈ 3270 µM) in [1]; less than 50 µg/mL in test [2]; 100 µg/mL (≈ 409 µM) in [3]; 800 µg/mL (≈ 3270 µM) in test [9]; 200 µg/mL (≈ 818 µM) in [4]; 200 µg/mL (≈ 818 µM) in [5]. The figures for the MIC in test [6], in test [7] and in test [8] were 400 µg/mL (≈ 1640 µM), 400 µg/mL (≈ 1640 µM) and 800 µg/mL (≈ 3270 µM), respectively. The “growth inhibition activity as multiple of 3-menthoxypropane-1,2-diol” value in the test on target microbe species is on record as “about 2 times”.
With `CC1CCC(C(C)C)C(OCCO)C1` (stereo not shown) [CA5, 2-(menthoxy)ethanol], the MIC in test [1] worked out at 800 µg/mL (≈ 3990 µM); in [2] it was 200 µg/mL (≈ 998 µM); in test [3] it was 200 µg/mL (≈ 998 µM); in test [9] it was 400 µg/mL (≈ 2000 µM); in [5], 200 µg/mL (≈ 998 µM); in test [6], 400 µg/mL (≈ 2000 µM). Also, the MIC in [7] was found to be 400 µg/mL (≈ 2000 µM); in [8], 800 µg/mL (≈ 3990 µM).
Consider `CC1CCC(C(C)C)C(OCC(O)CO)C1` (stereo not shown) [CA10, 3-menthoxypropane-1,2-diol, reference compound], for which the MIC is 800 µg/mL (≈ 3470 µM) in [1]; less than 50 µg/mL in test [2]; 100 µg/mL (≈ 434 µM) in [3]; 800 µg/mL (≈ 3470 µM) in test [9]; 200 µg/mL (≈ 868 µM) in [5]; 800 µg/mL (≈ 3470 µM) in [6]. Further, the MIC in test [7] and in [8] was 800 µg/mL (≈ 3470 µM) each time.
On to `CC1CCC(C(C)C)C(OCCCO)C1` (stereo not shown) [CA15, 3-menthoxypropan-1-ol], for which the MIC in test [1] was determined as 400 µg/mL (≈ 1870 µM); in [2], 200 µg/mL (≈ 933 µM); in test [3], 100 µg/mL (≈ 467 µM); in test [9] it was 400 µg/mL (≈ 1870 µM); in [5], 100 µg/mL (≈ 467 µM); in test [6], 400 µg/mL (≈ 1870 µM). The MIC in [7] was found to be 200 µg/mL (≈ 933 µM); in test [8] it was 400 µg/mL (≈ 1870 µM).
As for `CC1CCC(C(C)(C)O)C(O)C1` (stereo not shown) [CA38, p-menthane-3,8-diol, reference compound], the MIC in test [1] was greater than 1600 µg/mL; in test [2] it was greater than 1600 µg/mL; in test [3], 1600 µg/mL (≈ 9290 µM); in test [9], greater than 1600 µg/mL; in test [5], 1600 µg/mL (≈ 9290 µM); in test [6], greater than 1600 µg/mL. In addition, the MIC in [7] and in test [8] was greater than 1600 µg/mL throughout.
In the case of `CC1CCC(C(C)C)C(OCCOCCO)C1` (stereo not shown) [CA55, 2-(2-menthoxyethoxy)ethanol], the MIC in test [1] is 800 µg/mL (≈ 3270 µM); in test [2], 800 µg/mL (≈ 3270 µM); in test [3] it was 100 µg/mL (≈ 409 µM); in test [9], 800 µg/mL (≈ 3270 µM); in [5], 100 µg/mL (≈ 409 µM); in test [6], 800 µg/mL (≈ 3270 µM). Further, the MIC in test [7] and in [8] was 800 µg/mL (≈ 3270 µM) in each case.
In the case of `CC1CCC(C(C)C)C(OC(=O)C=O)C1` (stereo not shown) [CA MGH, menthyl glyoxylate], the MIC in test [1] amounted to 200 µg/mL (≈ 942 µM); in test [2], 200 µg/mL (≈ 942 µM); in [3] it was 50 µg/mL (≈ 236 µM); in test [9], 100 µg/mL (≈ 471 µM); in test [4], 50 µg/mL (≈ 236 µM); in test [6], 100 µg/mL (≈ 471 µM). For the same compound, the MIC in [7] was 200 µg/mL (≈ 942 µM); in test [8], 100 µg/mL (≈ 471 µM).
Take `CNC(=O)C(C)(C(C)C)C(C)C` [WS-23, N-methyl-2-isopropyl-2,3-dimethylbutanamide, reference compound]: the MIC in test [1], in test [2], in test [3], in test [4], in test [5] and in test [6] was greater than 1600 µg/mL each time. The MIC in [7] and in [8] was greater than 1600 µg/mL in each case.
On to `CC1CCC(C(C)C)C(O)C1` (stereo not drawn) [l-menthol, menthol, reference compound], for which the MIC in [1], in test [2], in test [3], in [9], in [5] and in test [6] was 1600 µg/mL (≈ 10200 µM) each time. Besides, the MIC in test [7] was 1600 µg/mL (≈ 10200 µM); in [8], greater than 1600 µg/mL.
